Patent US8298793B2, “Methods for isolating proteons from plasma samples” (Auburn University, priority 2002, dated 2012)
Several values for one entry are separate records, joined by “and”; a condition that tells them apart may be missing. Equal values may be shown once. Entries after “also recorded” stand apart in the source; their conditions may differ. Where a name gives a salt, the structure may show the parent alone.

Assays:
proteons = experiment: Proteon formation in plasma, counted by dark-field microscopy; type: biochemical; conditions: for number of proteons visible by dark-field microscopy: added to proteons produced without chaotropic compounds, then 120° C. and 20 psi; for number of proteons with rising concentration of chaotropic compound: plasma with 0, 0.01, 0.1, 1, 4 and 8 M, 120° C., 20 psi, dark-field microscopy
[1] = tested on: H9c2[2-1] (rat heart myocardium) cells; experiment: MTT cell proliferation assay on myocardium cells; type: cell-based; conditions: Staurosporine, 1% FCS, concentration not given
From the text: (§1) The impact of PNCs upon viability of various cultured cells was investigated using the tetrazolium salt (MTT) cell proliferation assay. RG2 ([…] brain glioma), F98 (rat brain glioma), Hs683 (human brain glioma), CTX TNA2 (rat transfected astrocyte), H9c2[2-1] (rat heart myocardium), 27FR (rat skin fibroblast), and SVGp12 (human brain astroglia) cells were obtained from American Type Culture Collection (ATCC) and maintained as recommended by ATCC. MTT cell proliferation assays are commercially available. See, e.g., MTT cell proliferation assay from ATCC. Cells were plated in Dulbecco's modified Eagle's growth medium ([…], Sigma Chemical Inc., St. […] PNCs were isolated from blood obtained from shark, dog, and rabbit using the ultrafiltration protocol described in Example 5. PNCs were autoclaved at 120° C. and 20 psi for 15 minutes before adding to the cell cultures. […] MTT was reduced in metabolically active cells to form purple formazan crystals, which were dissolved by DMSO and quantified by a BIO-RADTM plate reader. For each cell type, a linear relationship between cell number and absorbance is established, enabling accurate, straightforward quantification of changes in proliferation.

[2] = tested on: SVGp12 (human brain astroglia) cells; experiment: MTT cell proliferation assay on SVG astrocytes; type: cell-based; conditions: SVG astro, Staurosporine, 1% FCS, concentration not printed; for Absorbance at 550 nm (MTT), single well: listed as Staurosporine
From the text: as §1

[3] = tested on: F98 (rat brain glioma) cells; experiment: MTT cell proliferation assay on F98 glioma cells; type: cell-based; conditions: Staurosporine, 1% FCS, concentration not printed; for Absorbance at 550 nm (MTT), single well: listed as Staurosporine
From the text: as §1

[4] = tested on: CTX TNA2 (rat transfected astrocyte) cells; experiment: MTT cell proliferation assay on CTX astrocytes; type: cell-based; conditions: CTX astro, Staurosporine, 1% FCS
From the text: as §1

RG2 cells = experiment: MTT cell proliferation assay on RG2 glioma cells; type: cell-based, mouse
Method: The impact of PNCs upon viability of various cultured cells was investigated using the tetrazolium salt (MTT) cell proliferation assay. RG2 (mouse brain glioma), F98 (rat brain glioma), Hs683 (human brain glioma), CTX TNA2 (rat transfected astrocyte), H9c2[2-1] (rat heart myocardium), 27FR (rat skin fibroblast), and SVGp12 (human brain astroglia) cells were obtained from American Type Culture Collection (ATCC) and maintained as recommended by ATCC. […] Cells were plated in Dulbecco's modified Eagle's growth medium ([MUT], Sigma Chemical Inc., St. […] PNCs were autoclaved at 120° C. and 20 psi for 15 minutes before adding to the cell cultures. […] MTT was reduced in metabolically active cells to form purple formazan crystals, which were dissolved by DMSO and quantified by a BIO-RADTM plate reader. For each cell type, a linear relationship between cell number and absorbance is established, enabling accurate, straightforward quantification of changes in proliferation. […] Catalog No. S5921), 100 μg, FW 466.5. Dissolve 100 μg staurospine into 214.3 μl • DMSO to equal a 1 mM stock solution. Store at -200° C. […] TX put on late afternoon. • Add staurospine, autoclaved shark PNC, and either 10%, 1%, or 0% FCS treatments to cells and incubate overnight.

[5] = tested on: 27FR (rat skin fibroblast) cells; experiment: MTT cell proliferation assay on fibroblasts; type: cell-based; conditions: Fibro, Staurosporine, 1% FCS
From the text: as §1

[6] = myocard, Table 10 second myocard column
[7] = Table 10, concentration not given
[8] = RG2, 10% FCS, staurosporine 1 μM, Table 6
[9] = RG2, Staurosporine 100 urn, 1% FCS, Table 10
[10] = RG2, Staurosporine, 1% FCS, Table 10, concentration not given

`O=C(O)CN(CCN(CC(=O)O)CC(=O)O)CC(=O)O` [EDTA, ethylene diamine tetra acetate] was tested. Which “effect on formation of proteons from plasma” value (proteons; 10 mM EDTA added) did it give?
The value was “prevented the formation of proteon; also recorded: production was quenched”.

`N=C(N)N` [guanidine hydrochloride] was tested. Which “number of proteons visible by dark-field microscopy” value (proteons) did it give?
Its value is “great reduction”.

And the “number of proteons with rising concentration of chaotropic compound” value (proteons)?
Its value is “decreased”.

With `CN[C@@H]1C[C@H]2O[C@@](C)([C@@H]1OC)n1c3ccccc3c3c4c(c5c6ccccc6n2c5c31)C(=O)NC4` [staurosporine] as the compound, how does the “Ab. Av. (Absorbance at 550 nm, MTT)” value ([1]; Myocard, Table 10 first Myocard column) read?
Its value is 0.283.

And the “Ab. Av. (Absorbance at 550 nm, MTT)” value [1, 6]?
Its value is 0.16.

And the “Absorbance at 550 nm (MTT), single well” value [1, 6]?
The value was 0.176.

What about the “Ab. Av. (Absorbance at 550 nm, MTT)” value ([2]; Table 10 first SVG column) of the same compound?
Its value is 0.128.

And the “Absorbance at 550 nm (MTT), single well” value ([2]; Table 10 first SVG column)?
Its value is 0.128 and 0.12 and 0.136.

What about the “Ab. Av. (Absorbance at 550 nm, MTT)” value ([2]; Table 10 second SVG column) of the same compound?
The value was 0.067.

What about the “Absorbance at 550 nm (MTT), single well” value ([2]; Table 10 second SVG column) of the same compound?
The value was 0.067 and 0.066 and 0.068.

And the “Ab. Av. (Absorbance at 550 nm, MTT)” value ([3]; Table 10 first F98 column)?
The value was 0.1333.

What about the “Absorbance at 550 nm (MTT), single well” value ([3]; Table 10 first F98 column) of the same compound?
Its value is 0.136 and 0.138 and 0.12 and 0.139.

What about the “Ab. Av. (Absorbance at 550 nm, MTT)” value ([3]; Table 10 second F98 column) of the same compound?
The value was 0.1085.

And the “Absorbance at 550 nm (MTT), single well” value ([3]; Table 10 second F98 column)?
Its value is 0.108 and 0.109.

What about the “Ab. Av. (Absorbance at 550 nm, MTT)” value [4, 7] of the same compound?
The value was 0.1445.

And the “Absorbance at 550 nm (MTT), single well” value [4, 7]?
Its value is 0.122 and 0.118 and 0.126.

What about the “Ab. Av. (Absorbance at 550 nm, MTT)” value ([4]; Table 10 first CTX column, concentration not given) of the same compound?
Its value is 0.3782.

And the “Ab. Av. (Absorbance at 550 nm, MTT)” value (RG2 cells; [8])?
Its value is 0.4053.

And the “Absorbance at 550 nm (MTT), single well” value (RG2 cells; [8])?
The value was 0.406 and 0.411 and 0.399.

And the “Ab. Av. (Absorbance at 550 nm, MTT)” value (RG2 cells; [9])?
Its value is 0.2893.

What about the “Absorbance at 550 nm (MTT), single well” value (RG2 cells; [9]) of the same compound?
Its value is 0.272 and 0.279.

What about the “Ab. Av. (Absorbance at 550 nm, MTT)” value (RG2 cells; [10]) of the same compound?
The value was 0.1268.

What about the “Absorbance at 550 nm (MTT), single well” value (RG2 cells; [10]) of the same compound?
Its value is 0.149 and 0.12 and 0.119.

What about the “Ab Av. (Absorbance at 550 nm, MTT)” value (RG2 cells; RG2, stauro 1% FCS (1 μM per protocol b158), Table 7) of the same compound?
Its value is 0.09867.

What about the “Ab. Av. (Absorbance at 550 nm, MTT)” value [5, 7] of the same compound?
Its value is 0.2757.

And the “Absorbance at 550 nm (MTT), single well” value [5, 7]?
The value was 0.296 and 0.257 and 0.275.

What about the “Ab. Av. (Absorbance at 550 nm, MTT)” value ([5]; Table 10 second Fibro column, concentration not given) of the same compound?
Its value is 0.169.

What does the source list for `NC(N)=O` [urea]?
number of proteons visible by dark-field microscopy (proteons): great reduction; number of proteons with rising concentration of chaotropic compound (proteons): decreased
